Assay results reported in patent US4652548A (Eli Lilly and Company, priority 1984, dated 1987).

How the values were obtained:
[1] = tested on: hepatic glucose production; test: Subcutaneous administration to Type II diabetic subjects: hepatic glucose production; format: in vivo, human; conditions: 0.2 U/kg s.c.
[2] = tested on: hepatic glucose output; test: Euglycemic glucose-clamp: suppression of hepatic glucose output; format: in vivo, human
Procedure: J. Physiol. 237:E214-E223 (1979). With this technique, an antecuubital vein is cannulated in an antegrade manner to administer the infusates. A dorsal hand vein is cannulated in a retrograde fashion and kept in a warming device (70° C.) to facilitate venous sampling and provide arterialized venous blood After insertion of the catheters, [3-3H]-glucose is infused for at least 30 minutes before initiating the hormone infusion. At the onset of hormone infusion, a priming dose of either insulin or proinsulin is administered during the initial 10 minutes in a logarithmically decreasing manner to acutely raise the serum hormone level. […] The overall glucose disposal rate is assessed isotopically for each 20 minute interval of the study.
Each subject underwent a total of 8 euglycemic glucose clamp studies, each performed on a separate day. […] Hepatic glucose output was quantitated in the basal state and during each clamp study using a primed continuous infusion of [3-3H]glucose. […] The dose response relationship for insulin and proinsulin mediated suppression of hepatic glucose output was determined by calculating the percent suppression of basal hepatic glucose output at each steady state hormone concentration obtained during the euglycemic clamp studies.

[3] = five Type II subjects, 0.2 U/kg s.c.
[4] = tested on: glucose disposal; test: Euglycemic glucose-clamp: glucose disposal rate; format: in vivo, human
Procedure: With this technique, an antecuubital vein is cannulated in an antegrade manner to administer the infusates. A dorsal hand vein is cannulated in a retrograde fashion and kept in a warming device (70° C.) to facilitate venous sampling and provide arterialized venous blood After insertion of the catheters, [3-3H]-glucose is infused for at least 30 minutes before initiating the hormone infusion. At the onset of hormone infusion, a priming dose of either insulin or proinsulin is administered during the initial 10 minutes in a logarithmically decreasing manner to acutely raise the serum hormone level. The amount of insulin or proinsulin given during this initial 10 minute period is roughly twice that given during each subsequent 10 minute interval by a continuous hormone infusion The serum glucose is maintained between 80 and 90 mg/dl throughout the study period with a coefficient of variation of less than 5% by means of a variable rate of infusion of 20% dextrose. The overall glucose disposal rate is assessed isotopically for each 20 minute interval of the study.
On one day, each subject received a 5.0 μg/M^2 /min (120 mU/M^2 /min) insulin infusion over a 6 hour period. […] Each proinsulin infusion was carried out for 300 minutes, with the quantitation of its biological effects based on measurements made during the 5th hour of each study. […]

[5] = tested on: fasting Type II diabetic patients; test: Subcutaneous administration to fasting Type II diabetic patients: plasma glucose; format: in vivo, human; conditions: for Plasma Glucose, Mean: mean total dose 18.7 I.U. (0.2 U/kg s.c.)
[6] = Study A (insulin 15 mU/M^2/min, proinsulin 2.75 μg/M^2/min), Mean ± SE

human proinsulin: human proinsulin, available by organic synthesis, isolation from human pancreas or recombinant DNA methodology
Effect on elevated hepatic glucose production [1]: suppressed into the normal range
Time of maximum suppression of hepatic glucose production [1]: 264 ± 31 min
Minimum hepatic glucose production ([1]; basal 3.83±0.6): 1.21 ± 0.2 mg/kg/min
Suppression of Hepatic Glucose Output (%) [2, 6]: 80 ± 6%
Serum hormone concentration required to achieve 90% suppression of hepatic glucose output ([2]; healthy subjects, steady state, euglycemic clamp): 3.35 pmol/mL
Mean peak hormone blood level [3]: 6.8 pmol/mL
Time of mean peak hormone blood level [3]: 230 ± 33 min
Time to reach steady state rates of glucose disposal ([4]; 5 subjects, insulin 5.0 μg/M^2/min over 6 h, proinsulin 22.5 μg/M^2/min over 8 h): ≤ 5 h
Glucose Disposal Rate [4, 6]: 122 ± 11 mg/M^2/min
Blood glucose level of each subject ([5]; 0.2 U/kg s.c., normal range about 80-110 mg/dl): lowered to a normal range
Hypoglycemia among subjects ([5]; five Type II subjects, 0.2 U/kg s.c., insulin: by approximately 300 minutes): hypoglycemia nowhere evidenced
Plasma Glucose, Mean ([5]; mean of subjects with values, 360 min after injection): 102 mg/dL
Plasma Glucose, Mean ([5]; mean of subjects with values, 400 min after injection): 95 mg/dL
Plasma Glucose, Mean ([5]; mean of subjects with values, 440 min after injection): 92 mg/dL
Plasma Glucose, Mean ([5]; mean of subjects with values, 480 min after injection): 96 mg/dL
Plasma Glucose, Mean ([5]; mean of subjects, 0 min after injection): 245 mg/dL
Plasma Glucose, Mean ([5]; mean of subjects, 40 min after injection): 235 mg/dL
Plasma Glucose, Mean ([5]; mean of subjects, 80 min after injection): 221 mg/dL
Plasma Glucose, Mean ([5]; mean of subjects, 120 min after injection): 205 mg/dL
Plasma Glucose, Mean ([5]; mean of subjects, 160 min after injection): 188 mg/dL
Plasma Glucose, Mean ([5]; mean of subjects, 280 min after injection): 129 mg/dL
Plasma Glucose, Mean ([5]; mean of subjects, 300 min after injection): 113 mg/dL
Plasma Glucose ([5]; subject four, total dose 16.3 I.U. (0.2 U/kg s.c.), 0 min after injection): 290 mg/dL
Plasma Glucose ([5]; subject four, total dose 16.3 I.U. (0.2 U/kg s.c.), 40 min after injection): 282 mg/dL
Plasma Glucose ([5]; subject four, total dose 16.3 I.U. (0.2 U/kg s.c.), 80 min after injection): 272 mg/dL
Plasma Glucose ([5]; subject four, total dose 16.3 I.U. (0.2 U/kg s.c.), 120 min after injection): 250 mg/dL
Plasma Glucose ([5]; subject four, total dose 16.3 I.U. (0.2 U/kg s.c.), 160 min after injection): 230 mg/dL
Plasma Glucose ([5]; subject four, total dose 16.3 I.U. (0.2 U/kg s.c.), 200 min after injection): 200 mg/dL
Plasma Glucose ([5]; subject four, total dose 16.3 I.U. (0.2 U/kg s.c.), 240 min after injection): 183 mg/dL
Plasma Glucose ([5]; subject four, total dose 16.3 I.U. (0.2 U/kg s.c.), 280 min after injection): 152 mg/dL
Plasma Glucose ([5]; subject four, total dose 16.3 I.U. (0.2 U/kg s.c.), 300 min after injection): 127 mg/dL
Plasma Glucose ([5]; subject four, total dose 16.3 I.U. (0.2 U/kg s.c.), 360 min after injection): 101 mg/dL
Plasma Glucose ([5]; subject four, total dose 16.3 I.U. (0.2 U/kg s.c.), 400 min after injection): 82 mg/dL
Plasma Glucose ([5]; subject four, total dose 16.3 I.U. (0.2 U/kg s.c.), 440 min after injection): 77 mg/dL
Plasma Glucose ([5]; subject one, total dose 14.8 I.U. (0.2 U/kg s.c.), 0 min after injection): 213 mg/dL
Plasma Glucose ([5]; subject one, total dose 14.8 I.U. (0.2 U/kg s.c.), 40 min after injection): 203 mg/dL
Plasma Glucose ([5]; subject one, total dose 14.8 I.U. (0.2 U/kg s.c.), 80 min after injection): 187 mg/dL
Plasma Glucose ([5]; subject one, total dose 14.8 I.U. (0.2 U/kg s.c.), 160 min after injection): 140 mg/dL
Plasma Glucose ([5]; subject one, total dose 14.8 I.U. (0.2 U/kg s.c.), 240 min after injection): 81 mg/dL
Plasma Glucose ([5]; subject one, total dose 14.8 I.U. (0.2 U/kg s.c.), 280 min after injection): 77 mg/dL
Plasma Glucose ([5]; subject one, total dose 14.8 I.U. (0.2 U/kg s.c.), 300 min after injection): 80 mg/dL
Plasma Glucose ([5]; subject one, total dose 14.8 I.U. (0.2 U/kg s.c.), 320 min after injection): 80 mg/dL
Plasma Glucose ([5]; subject three, total dose 27.2 I.U. (0.2 U/kg s.c.), 0 min after injection): 159 mg/dL
Plasma Glucose ([5]; subject three, total dose 27.2 I.U. (0.2 U/kg s.c.), 40 min after injection): 144 mg/dL
Plasma Glucose ([5]; subject three, total dose 27.2 I.U. (0.2 U/kg s.c.), 120 min after injection): 128 mg/dL
